Measurements taken from patent US10405547B2, “Substituted cyclic amides as herbicides” (FMC Corporation, priority 2015, dated 2019).

Key:
Format in all cases: in vivo
[1] = tested on: barnyardgrass (Echinochloa crus-galli); assay: Test B flooded paddy test, barnyardgrass; settings: 250 g ai/ha, applied to paddy water, visual rating after 13 to 15 days, scale 0 (no effect) to 100 (complete control)
Outline: (§1)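 Flooded 3 cm over soil; compound into paddy water; depth kept constant. Greenhouse 13–15 d.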

kochia (Kochia scoparia) [2] = assay: Test A preemergence, kochia; settings: 0 to 100 scale (0 no effect, 100 complete control)
Outline: (§2)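 Visual injury on a 0 to 100 scale, about 10 days post-spray in the greenhouse. Postemergence plants measured 2–10 cm at one to two leaves; preemergence pots received a directed soil spray. Soil was a loam–sand blend.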

[3] = tested on: foxtail, giant (Setaria faberii); assay: Test A preemergence, giant foxtail; settings: 0 to 100 scale (0 no effect, 100 complete control)
Outline: as §2

[4] = tested on: wheat (Triticum aestivum); assay: Test A postemergence, wheat; settings: visual injury, 0 to 100 scale (0 no effect, 100 complete control), approximately 10 days
Outline: as §2

[5] = tested on: barnyardgrass (Echinochloa crus-galli); assay: Test A preemergence, barnyardgrass; settings: 0 to 100 scale (0 no effect, 100 complete control)
Outline: as §2

kochia (Kochia scoparia) [6] = assay: Test A postemergence, kochia; settings: visual injury, 0 to 100 scale (0 no effect, 100 complete control), approximately 10 days
Outline: as §2

[7] = tested on: ragweed (common ragweed, Ambrosia elatior); assay: Test A preemergence, ragweed; settings: 0 to 100 scale (0 no effect, 100 complete control)
Outline: as §2

[8] = tested on: ryegrass, Italian (Lolium multiflorum); assay: Test A postemergence, Italian ryegrass; settings: visual injury, 0 to 100 scale (0 no effect, 100 complete control), approximately 10 days
Outline: as §2

[9] = tested on: pigweed (Amaranthus retroflexus); assay: Test A preemergence, pigweed; settings: 0 to 100 scale (0 no effect, 100 complete control)
Outline: as §2

[10] = tested on: ragweed (common ragweed, Ambrosia elatior); assay: Test A postemergence, ragweed; settings: visual injury, 0 to 100 scale (0 no effect, 100 complete control), approximately 10 days
Outline: as §2

[11] = tested on: foxtail, giant (Setaria faberii); assay: Test A postemergence, giant foxtail; settings: visual injury, 0 to 100 scale (0 no effect, 100 complete control), approximately 10 days
Outline: as §2

corn (Zea mays) = assay: Test A postemergence, corn; settings: visual injury, 0 to 100 scale (0 no effect, 100 complete control), approximately 10 days
Outline: as §2

[12] = tested on: sedge, umbrella (small-flower umbrella sedge, Cyperus difformis); assay: Test B flooded paddy test, umbrella sedge; settings: 250 g ai/ha, applied to paddy water, visual rating after 13 to 15 days, scale 0 (no effect) to 100 (complete control)
Outline: as §1

rice (Oryza sativa) = assay: Test B flooded paddy test, rice; settings: 250 g ai/ha, applied to paddy water, visual rating after 13 to 15 days, scale 0 (no effect) to 100 (complete control)
Outline: as §1

[13] = tested on: pigweed (Amaranthus retroflexus); assay: Test A postemergence, pigweed; settings: visual injury, 0 to 100 scale (0 no effect, 100 complete control), approximately 10 days
Outline: as §2

[14] = tested on: galium (catchweed bedstraw, Galium aparine); assay: Test A postemergence, galium; settings: visual injury, 0 to 100 scale (0 no effect, 100 complete control), approximately 10 days
Outline: as §2

[15] = tested on: blackgrass (Alopecurus myosuroides); assay: Test A postemergence, blackgrass; settings: visual injury, 0 to 100 scale (0 no effect, 100 complete control), approximately 10 days
Outline: as §2

[16] = tested on: barnyardgrass (Echinochloa crus-galli); assay: Test A postemergence, barnyardgrass; settings: visual injury, 0 to 100 scale (0 no effect, 100 complete control), approximately 10 days
Outline: as §2

[17] = tested on: ducksalad (Heteranthera limosa); assay: Test B flooded paddy test, ducksalad; settings: 250 g ai/ha, applied to paddy water, visual rating after 13 to 15 days, scale 0 (no effect) to 100 (complete control)
Outline: as §1

[18] = tested on: ryegrass, Italian (Lolium multiflorum); assay: Test A preemergence, Italian ryegrass; settings: 0 to 100 scale (0 no effect, 100 complete control)
Outline: as §2

Row | Structure (SMILES) | Plant response rating, Barnyardgrass (Flood) [1] | Plant response rating, Kochia (kochia (Kochia scoparia) [2]; 125 g ai/ha) | Plant response rating, Kochia (kochia (Kochia scoparia) [2]; 500 g ai/ha) | Plant response rating, Foxtail, Giant ([3]; 125 g ai/ha) | Plant response rating, Foxtail, Giant ([3]; 500 g ai/ha) | Plant response rating, Wheat ([4]; 125 g ai/ha) | Plant response rating, Wheat ([4]; 500 g ai/ha) | Plant response rating, Barnyardgrass ([5]; 125 g ai/ha) | Plant response rating, Barnyardgrass ([5]; 500 g ai/ha) | Plant response rating, Kochia (kochia (Kochia scoparia) [6]; 125 g ai/ha) | Plant response rating, Kochia (kochia (Kochia scoparia) [6]; 500 g ai/ha) | Plant response rating, Ragweed ([7]; 125 g ai/ha) | Plant response rating, Ragweed ([7]; 500 g ai/ha) | Plant response rating, Ryegrass, Italian ([8]; 125 g ai/ha) | Plant response rating, Ryegrass, Italian ([8]; 500 g ai/ha) | Plant response rating, Pigweed ([9]; 125 g ai/ha) | Plant response rating, Pigweed ([9]; 500 g ai/ha) | Plant response rating, Ragweed ([10]; 125 g ai/ha) | Plant response rating, Ragweed ([10]; 500 g ai/ha) | Plant response rating, Foxtail, Giant ([11]; 125 g ai/ha) | further results
1 | CON=Cc1cccc(C2CN(C)C(=O)C2C(=O)Nc2ccccc2F)c1 (stereo not drawn) [Compound 53, N-(2-fluorophenyl)-4-[3-[(methoxyimino)methyl]phenyl]-1-methyl-2-oxo-3-pyrrolidinecarboxamide] | 30 | 60 | 70 | 90 | 90 | 0 | 0 | 90 | 90 | 0 | 0 | 0 | 0 | 0 | 0 | 0 | 0 | 0 | 0 | 80 | Plant response rating, Foxtail, Giant ([11]; 500 g ai/ha): 90; Plant response rating, Corn (corn (Zea mays); 125 g ai/ha): 0; Plant response rating, Corn (corn (Zea mays); 500 g ai/ha): 0; Plant response rating, Sedge, Umbrella (Flood) [12]: 0; Plant response rating, Rice (Flood) (rice (Oryza sativa)): 0; Plant response rating, Pigweed ([13]; 125 g ai/ha): 0; Plant response rating, Pigweed ([13]; 500 g ai/ha): 0; Plant response rating, Galium ([14]; 125 g ai/ha): 0; Plant response rating, Galium ([14]; 500 g ai/ha): 30; Plant response rating, Blackgrass ([15]; 125 g ai/ha): 0; Plant response rating, Blackgrass ([15]; 500 g ai/ha): 20; Plant response rating, Barnyardgrass ([16]; 125 g ai/ha): 70; Plant response rating, Barnyardgrass ([16]; 500 g ai/ha): 90; Plant response rating, Ducksalad (Flood) [17]: 70; Plant response rating, Ryegrass, Italian ([18]; 125 g ai/ha): 0; Plant response rating, Ryegrass, Italian ([18]; 500 g ai/ha): 0
2 | CN(C)N=Cc1cccc(C2CN(C)C(=O)C2C(=O)Nc2ccccc2F)c1 (stereo not drawn) [Compound 54] | 0 | 0 | 0 | 0 | 70 | 0 | 0 | 0 | 20 | 0 | 0 | 0 | 0 | 0 | 0 | 0 | 0 | 0 | 0 | 0 | Plant response rating, Foxtail, Giant ([11]; 500 g ai/ha): 20; Plant response rating, Corn (corn (Zea mays); 125 g ai/ha): 0; Plant response rating, Corn (corn (Zea mays); 500 g ai/ha): 0; Plant response rating, Sedge, Umbrella (Flood) [12]: 0; Plant response rating, Rice (Flood) (rice (Oryza sativa)): 0; Plant response rating, Pigweed ([13]; 125 g ai/ha): 0; Plant response rating, Pigweed ([13]; 500 g ai/ha): 0; Plant response rating, Galium ([14]; 125 g ai/ha): 0; Plant response rating, Galium ([14]; 500 g ai/ha): 0; Plant response rating, Blackgrass ([15]; 125 g ai/ha): 0; Plant response rating, Blackgrass ([15]; 500 g ai/ha): 0; Plant response rating, Barnyardgrass ([16]; 125 g ai/ha): 0; Plant response rating, Barnyardgrass ([16]; 500 g ai/ha): 30; Plant response rating, Ducksalad (Flood) [17]: 0; Plant response rating, Ryegrass, Italian ([18]; 125 g ai/ha): 0; Plant response rating, Ryegrass, Italian ([18]; 500 g ai/ha): 0
